Data as given in BindingDB's records for doi:10.1021/jm900036m (The University of Newcastle, 2009).

Test: Inhibition of dynamin 1-mediated endocytosis internalization of Tf-A594 in human U2OS cells pretreated for 30 mins

Row | Compound | IC50 [µM]
1 | CCCCCCNC(=O)/C(C#N)=C/c1c(C)n(CCCN(C)C)c2ccccc12 [2-Cyano-N-hexyl-3-[1-(3-dimethylaminopropyl)-2-methyl-1Hindol-3-yl]-acrylamide] | 14.3
2 | CCCCCCCCCCNC(=O)/C(C#N)=C/c1c(C)n(CCN(C)C)c2ccccc12 [2-Cyano-N-decyl-3-[1-(2-dimethylaminoethyl)-2-methyl-1Hindol-3-yl]-acrylamide] | 58.2

Compounds with a lower IC50, results first:

Row | IC50 [µM] | Compound
3 | 10.8 | CCCCCCCCNC(=O)/C(C#N)=C/c1c(C)n(CCCN(C)C)c2ccccc12 [2-Cyano-N-octyl-3-[1-(3-dimethylaminopropyl)-2-methyl-1Hindol-3-yl]-acrylamide]
4 | 13.2 | CCCCCCCCNC(=O)/C(C#N)=C/c1c(C)n(CCN(C)C)c2ccccc12 [2-Cyano-N-octyl-3-[1-(2-dimethylaminoethyl)-2-methyl-1Hindol-3-yl]-acyrlamide]
5 | 5 | CCCCCCCCNC(=O)/C(C#N)=C/c1cn(CCCN(C)C)c2ccccc12 [2-Cyano-N-octyl-3-(1-(3-dimethylaminopropyl)-1H-indol-3-yl)-acrylamide]
